Patent US9630965B2, “Fused amino pyridine as HSP90 inhibitors” (Curis, Inc., priority 2007, dated 2017)

What follows are compounds tested against HSP90 (Homo sapiens (Human), UniProt P07900) (assay: HSP90 competition binding (fluorescence polarization) assay with FITC labeled GM). Settings: 24 hours of incubation at 4° C.
From the text: (b) HSP90 Competition Binding (Fluorescence Polarization) Assay.
A fluorescein isothiocyanate (FITC) labeled GM was purchase from InvivoGen (ant-fgl-1). The interaction between HSP90 and labeled GM forms the basis for the fluorescence polarization assay. A free and fast-tumbling FITC labeled GM emits random light with respect to the plane of polarization plane of excited light, resulting in a lower polarization degree (mP) value. When GM is bound to HSP90, the complex tumble slower and the emitted light is polarized, resulting in a higher mP value. […] The assay buffer contained 20 mM HEPES (pH 7.3), 50 mM KCl, 1 mM DTT, 50 mM MgCl2, 20 mM Na2MoO4, 0.01% NP40 with 0.1 mg/ml bovine gamma-globulin.

Row | IC50 [µM] | Structure (SMILES)
1 | 0.1 to 1 | CCCCCn1c(Sc2cc3c(cc2I)OCO3)nc2c(N)nccc21 [Compound 4, 2-(6-iodobenzo[d][1,3]dioxol-5-ylthio)-1-pentyl-1H-imidazo[4,5-c]pyridin-4-amine]
2 | 0.1 to 1 | C#CCCCn1c(Sc2cc3c(cc2I)OCCO3)nc2c(N)nccc21 [Compound 7, 2-(7-iodo-2,3-dihydrobenzo[b][1,4]dioxin-6-ylthio)-1-(pent-4-ynyl)-1H-imidazo[4,5-c]pyridin-4-amine]
3 | > 10 | C#CCCCn1c(Sc2ccc3c(c2)CCO3)nc2c(N)nccc21 [Compound 9, 2-(2,3-dihydrobenzofuran-5-ylthio)-1-(pent-4-ynyl)-1H-imidazo[4,5-c]pyridin-4-amine]
4 | > 10 | C#CCCCn1c(Sc2cc(O)c(O)cc2I)nc2c(N)nccc21 [Compound 16, 4-(4-amino-1-(pent-4-ynyl)-1H-imidazo[4,5-c]pyridin-2-ylthio)-5-iodobenzene-1,2-diol]
5 | 1 to 10 | C#CCCCn1c(Sc2cc(OC)ccc2C#N)nc2c(N)nccc21 [Compound 18, 2-(4-amino-1-(pent-4-ynyl)-1H-imidazo[4,5-c]pyridin-2-ylthio)-4-methoxybenzonitrile]
6 | > 10 | C#CCCCn1c(Sc2cc(F)c(F)cc2I)nc2c(N)nccc21 [Compound 21, 2-(4,5-difluoro-2-iodophenylthio)-1-(pent-4-ynyl)-1H-imidazo[4,5-c]pyridin-4-amine]
7 | 1 to 10 | C#CCCn1c(Sc2cc3c(cc2Br)OCO3)nc2c(N)nccc21 [Compound 22, 2-(6-bromobenzo[d][1,3]dioxol-5-ylthio)-1-(but-3-ynyl)-1H-imidazo[4,5-c]pyridin-4-amine]
8 | 0.1 to 1 | C#CCCn1c(Sc2cc3c(cc2I)OCO3)nc2c(N)nccc21 [Compound 23, 1-(but-3-ynyl)-2-(6-iodobenzo[d][1,3]dioxol-5-ylthio)-1H-imidazo[4,5-c]pyridin-4-amine]
9 | 1 to 10 | C#CCCCCn1c(Sc2cc3c(cc2Br)OCO3)nc2c(N)nccc21 [Compound 24, 2-(6-bromobenzo[d][1,3]dioxol-5-ylthio)-1-(hex-5-ynyl)-1H-imidazo[4,5-c]pyridin-4-amine]
10 | 0.1 to 1 | C#CCCCCn1c(Sc2cc3c(cc2I)OCO3)nc2c(N)nccc21 [Compound 25, 1-(hex-5-ynyl)-2-(6-iodobenzo[d][1,3]dioxol-5-ylthio)-1H-imidazo[4,5-c]pyridin-4-amine]
11 | 1 to 10 | COc1ccc(I)c(Sc2nc3c(N)nccc3n2CCCC#N)c1 [Compound 26, 4-(4-amino-2-(2-iodo-5-methoxyphenylthio)-1H-imidazo[4,5-c]pyridin-1-yl)butanenitrile]
12 | 1 to 10 | N#CCCCn1c(Sc2cc3c(cc2Br)OCO3)nc2c(N)nccc21 [Compound 27, 4-(4-amino-2-(6-bromobenzo[d][1,3]dioxol-5-ylthio)-1H-imidazo[4,5-c]pyridin-1-yl)butanenitrile]
13 | 0.1 to 1 | N#CCCCn1c(Sc2cc3c(cc2I)OCO3)nc2c(N)nccc21 [Compound 28, 4-(4-amino-2-(6-iodobenzo[d][1,3]dioxol-5-ylthio)-1H-imidazo[4,5-c]pyridin-1-yl)butanenitrile]
14 | 1 to 10 | N#CCCCCn1c(Sc2cc3c(cc2Br)OCO3)nc2c(N)nccc21 [Compound 29, 5-(4-amino-2-(6-bromobenzo[d][1,3]dioxol-5-ylthio)-1H-imidazo[4,5-c]pyridin-1-yl)pentanenitrile]
15 | 0.1 to 1 | N#CCCCCn1c(Sc2cc3c(cc2I)OCO3)nc2c(N)nccc21 [Compound 30, 5-(4-amino-2-(6-iodobenzo[d][1,3]dioxol-5-ylthio)-1H-imidazo[4,5-c]pyridin-1-yl)pentanenitrile]
16 | 1 to 10 | CC(C)NCCCn1c(Sc2cc3c(cc2Br)OCO3)nc2c(N)nccc21 [Compound 51, 2-(6-bromobenzo[d][1,3]dioxol-5-ylthio)-1-(3-(isopropylamino)propyl)-1H-imidazo[4,5-c]pyridin-4-amine]
